The record followed here is ChEMBL document CHEMBL3351445, “Potent 11β-hydroxylase inhibitors with inverse metabolic stability in human plasma and hepatic S9 fractions to promote wound healing” (J Med Chem, 2014).

Series [1] has as its target T1, Cytochrome P450 11B2, mitochondrial (Homo sapiens, UniProt P19099).
T1 sequence (P19099 whole entry): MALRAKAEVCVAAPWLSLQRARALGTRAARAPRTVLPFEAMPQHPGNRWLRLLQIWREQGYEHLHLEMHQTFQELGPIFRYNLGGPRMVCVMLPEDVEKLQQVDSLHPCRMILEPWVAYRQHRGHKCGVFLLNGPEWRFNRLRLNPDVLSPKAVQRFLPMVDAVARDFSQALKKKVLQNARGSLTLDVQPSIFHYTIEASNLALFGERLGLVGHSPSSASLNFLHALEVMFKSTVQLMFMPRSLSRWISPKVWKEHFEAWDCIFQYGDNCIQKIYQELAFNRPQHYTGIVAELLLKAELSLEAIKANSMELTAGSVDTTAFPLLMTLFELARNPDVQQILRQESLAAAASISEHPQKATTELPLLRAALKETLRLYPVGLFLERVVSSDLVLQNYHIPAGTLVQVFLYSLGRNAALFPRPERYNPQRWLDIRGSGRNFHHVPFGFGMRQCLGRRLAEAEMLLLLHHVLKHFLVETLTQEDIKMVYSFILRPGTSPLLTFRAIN
The experiment in a line: Inhibition of human CYP11B2 expressed in hamster V79MZh cells using [1,2-3H]-11-deoxycorticosterone as substrate.

Series [2] deals with T2, Cytochrome P450 11B1, mitochondrial (Homo sapiens, UniProt P15538).
T2 sequence (P15538 whole entry): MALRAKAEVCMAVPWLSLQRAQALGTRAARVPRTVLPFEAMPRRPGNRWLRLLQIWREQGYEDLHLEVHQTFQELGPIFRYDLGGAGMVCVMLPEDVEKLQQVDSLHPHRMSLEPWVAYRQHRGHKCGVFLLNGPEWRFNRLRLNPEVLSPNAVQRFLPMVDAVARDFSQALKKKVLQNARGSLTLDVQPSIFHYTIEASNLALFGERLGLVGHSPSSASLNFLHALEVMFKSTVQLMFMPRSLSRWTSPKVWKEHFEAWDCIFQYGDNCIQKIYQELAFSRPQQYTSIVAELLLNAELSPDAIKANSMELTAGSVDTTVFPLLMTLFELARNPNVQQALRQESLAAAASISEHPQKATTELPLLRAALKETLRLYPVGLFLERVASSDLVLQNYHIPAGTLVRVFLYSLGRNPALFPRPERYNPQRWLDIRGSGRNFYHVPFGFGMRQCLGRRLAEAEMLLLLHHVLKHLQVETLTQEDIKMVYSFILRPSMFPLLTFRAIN
Briefly: Inhibition of human CYP11B1 expressed in hamster V79MZh cells using [1,2-3H]-11-deoxycorticosterone as substrate.

Series [3] can be described thus: Half life in human liver S9 fraction by LC-MS/MS analysis. The series is classed as ADME, subcellular.
Series [4] deals with Salmonella typhimurium. Briefly: Mutagenicity in Salmonella typhimurium TA98 up to 100 uM by Ames II assay in presence of S9 fraction. The series is classed as toxicity, organism-based. The following applies: salmonella enterica subsp. enterica serovar typhimurium. (In general: The Ames test detects mutagens through reverse mutation in bacteria.)
Series [5] addresses T3, CYP17 (Homo sapiens, UniProt P05093).
T3 sequence (P05093 whole entry): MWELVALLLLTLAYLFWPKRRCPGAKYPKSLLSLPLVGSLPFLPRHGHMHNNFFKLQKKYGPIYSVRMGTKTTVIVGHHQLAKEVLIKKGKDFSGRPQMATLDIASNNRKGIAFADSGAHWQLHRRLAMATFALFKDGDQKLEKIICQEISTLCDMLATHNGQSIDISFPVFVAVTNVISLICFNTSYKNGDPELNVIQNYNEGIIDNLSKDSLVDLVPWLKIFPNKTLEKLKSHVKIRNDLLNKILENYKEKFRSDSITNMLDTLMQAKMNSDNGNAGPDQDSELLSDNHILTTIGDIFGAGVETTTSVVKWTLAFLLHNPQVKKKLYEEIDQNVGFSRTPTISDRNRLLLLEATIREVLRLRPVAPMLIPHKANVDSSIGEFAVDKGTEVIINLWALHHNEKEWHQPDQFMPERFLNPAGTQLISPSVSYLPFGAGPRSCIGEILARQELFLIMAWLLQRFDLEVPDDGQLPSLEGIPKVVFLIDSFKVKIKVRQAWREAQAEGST
The experiment in a line: Inhibition of human CYP17 expressed in Escherichia coli using progesterone as substrate at 2 uM. The settings on record: probe progesterone.

The subject of series [6] is V79MZh. The experiment in a line: Selectivity ratio of IC50 for human placental CYP19 to IC50 for human CYP11B1 expressed in hamster V79MZh cells. The series is classed as cell-based.
Series [7] deals with Salmonella typhimurium. Briefly: Mutagenicity in Salmonella typhimurium TA7001/7002/7003/7004/7005/7006 up to 100 uM by Ames II assay. The series is classed as toxicity, organism-based. The following applies: salmonella enterica subsp. enterica serovar typhimurium.
Series [8] has as its target T4, CYP19 (aromatase) (Homo sapiens, UniProt P11511).
T4 sequence (P11511 whole entry): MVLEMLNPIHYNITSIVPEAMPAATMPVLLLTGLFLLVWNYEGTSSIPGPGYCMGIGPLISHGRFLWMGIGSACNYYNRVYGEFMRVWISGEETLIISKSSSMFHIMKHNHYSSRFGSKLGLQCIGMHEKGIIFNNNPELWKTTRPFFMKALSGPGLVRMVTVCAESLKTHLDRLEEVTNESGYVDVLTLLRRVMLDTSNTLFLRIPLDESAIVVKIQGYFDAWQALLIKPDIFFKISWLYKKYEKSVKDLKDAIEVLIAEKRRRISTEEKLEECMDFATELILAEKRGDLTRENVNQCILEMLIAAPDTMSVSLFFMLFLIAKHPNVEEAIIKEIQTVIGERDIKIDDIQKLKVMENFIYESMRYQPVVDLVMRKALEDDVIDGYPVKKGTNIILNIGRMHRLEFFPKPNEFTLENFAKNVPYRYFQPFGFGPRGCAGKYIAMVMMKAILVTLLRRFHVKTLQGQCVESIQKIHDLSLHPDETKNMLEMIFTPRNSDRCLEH
The experiment in a line: Inhibition of human placental CYP19 using [1beta-3H]androstenedione as substrate at 2 uM by 3H2O-method. The following applies: human placental CYP19, probe [1beta-3H]androstenedione.

For series [9], the system named is Salmonella typhimurium. The experiment in a line: Mutagenicity in Salmonella typhimurium TA7001/7002/7003/7004/7005/7006 up to 100 uM by Ames II assay in presence of S9 fraction. The series is classed as toxicity, organism-based. The following applies: salmonella enterica subsp. enterica serovar typhimurium.
Series [10] can be described thus: Half life in human plasma by LC-MS/MS analysis. Type of series: ADME, cell-free.
Series [11] relates to Salmonella typhimurium. Briefly: Mutagenicity in Salmonella typhimurium TA98 up to 100 uM by Ames II assay. Type of series: toxicity, organism-based. The settings on record: salmonella enterica subsp. enterica serovar typhimurium.
Series [12] has as its system V79MZh. The experiment in a line: Selectivity ratio of IC50 for human CYP17 expressed in Escherichia coli to IC50 for human CYP11B1 expressed in hamster V79MZh cells.

The term IC50 denotes the midpoint of a concentration-inhibition curve. A higher IC50 goes with weaker potency. With `O=S(=O)(c1cccc(F)c1)N1CCc2cc(-c3cccnc3)ccc21`, the IC50 in [1] turned out to be 850 nM; in [2] it was 327 nM.
Consider `O=S(=O)(c1ccccc1)N1CCCc2cc(-c3cccnc3)ccc21`, for which the concentration for half-maximal inhibition (IC50) in series [1] was 295 nM; in series [2] it was 65 nM.
What is called half-life is the time in which the quantity being followed falls by half. Read a low half-life as fast loss. In turn, `CC(C)(C(=O)c1cccnc1)c1cccnc1` [METYRAPONE] registered a half-life in series [3] of 49 min.
As a reminder, the inhibition is the change of the read-out against control, counted positive when it falls. Turning to `COc1cccc(S(=O)(=O)N2CCCc3cc(Cc4cccnc4)ccc32)c1`, the Activity result in series [4], in series [7], in [9] and in series [11] was “Non-toxic” in each case. Moreover, the 50% inhibitory concentration (IC50) stood at 8 nM in series [1] and 5 nM in series [2]. Besides, the inhibition at 2 µM in series [5] is 9%; in series [8] it was 26%. Further, the Ratio IC50 in series [6] and in series [12] was more than 60 throughout. The half-life was 16 min in series [3] and more than 150 min in [10].
`O=S(=O)(c1ccc(C(F)(F)F)cc1)N1CCCc2cc(-c3cccnc3)ccc21` had an IC50 in series [2] of 1220 nM.
Turning to `O=S(=O)(c1cccc(Cl)c1)N1CCCc2cc(-c3cccnc3)ccc21`, the IC50 in series [1] is 344 nM; in series [2], 62 nM.
In the case of `COc1cccc(S(=O)(=O)N2CCCc3cc(-c4ccncc4)ccc32)c1`, the IC50 in series [2] is more than 5000 nM.
Turning to `COc1cccc(S(=O)(=O)N2CCc3cc(-c4cccnc4)cnc32)c1`, the concentration for half-maximal inhibition (IC50) in series [2] amounted to 587 nM. This counts as sub-micromolar.
For the molecule `COc1cccc(S(=O)(=O)N2CCCc3cc(Cc4ccncc4)ccc32)c1`, the values for the IC50 in series [1] and in [2] were 5 nM and 6 nM, respectively. Also, the inhibition at 2 µM in series [5] came out at 14%; in series [8], 88%. Moreover, the Ratio IC50 in [6] and in [12] was more than 60 each time.
As for `O=S(=O)(c1cccc(C(F)(F)F)c1)N1CCCc2cc(-c3cccnc3)ccc21`, the 50% inhibitory concentration (IC50) was 607 nM in [1] and 309 nM in [2].
The corresponding values for `COc1cccc(S(=O)(=O)N2CCc3cc(-c4cccnc4)ccc32)c1` are 251 nM and 111 nM.
In series [2], `O=S(=O)(C1CCCCC1)N1CCCc2cc(-c3cccnc3)ccc21` came in with a concentration for half-maximal inhibition (IC50) of 1170 nM.
On the same count and under the same terms, for `O=S(=O)(c1ccc2ccccc2c1)N1CCCc2cc(-c3cccnc3)ccc21` the value was 663 nM.
In turn, `COc1cccc(S(=O)(=O)N2CCc3cc(-c4ccncc4)cnc32)c1` displayed an IC50 in [2] of 1750 nM.
In the case of `O=S(=O)(c1cccs1)N1CCCc2cc(-c3cccnc3)ccc21`, the half-maximal inhibitory concentration (IC50) in [1] came out at 259 nM; in [2], 60 nM.
The like results for `O=S(=O)(c1ccc(Cl)cc1)N1CCCc2cc(-c3cccnc3)ccc21` were, in that order, 469 nM and 137 nM.
The like results for `Cc1ccc(S(=O)(=O)N2CCCc3cc(-c4cccnc4)ccc32)cc1` were, in that order, 555 nM and 278 nM.
The like results for `N#Cc1ccc(S(=O)(=O)N2CCCc3cc(-c4cccnc4)ccc32)cc1` were, in that order, 557 nM and 114 nM.
As for `COc1ccc(S(=O)(=O)N2CCCc3cc(-c4cccnc4)ccc32)cc1`, the IC50 in series [1] is 519 nM; in series [2] it was 334 nM.
As for `COc1cccc(S(=O)(=O)N(Cc2ccccc2)c2ccc(-c3cccnc3)cc2)c1`, the 50% inhibitory concentration (IC50) in [2] was found to be 2000 nM.
`O=S(=O)(c1ccc(F)cc1)N1CCCc2cc(-c3cccnc3)ccc21`: the half-inhibitory concentration (IC50) in series [1] came out at 260 nM; in series [2], 49 nM.
The like results for `N#Cc1cccc(S(=O)(=O)N2CCCc3cc(-c4cccnc4)ccc32)c1` were, in that order, 429 nM and 65 nM.
The corresponding values for `O=S(=O)(c1cccc(F)c1)N1CCCc2cc(-c3cccnc3)ccc21` are 196 nM and 71 nM.
The corresponding values for `COc1cccc(S(=O)(=O)Nc2ccc(-c3cccnc3)cc2)c1` are 850 nM and 188 nM.
Regarding `COc1cccc(S(=O)(=O)N2CCCc3cc(-c4cccnc4)ccc32)c1`, the IC50 in series [1] was found to be 85 nM; in [2], 28 nM. Also, the inhibition at 2 µM was found to be 11% in series [5] and 32% in series [8]. Besides, the Ratio IC50 in series [6] and in series [12] was more than 60 in each case.
As for `O=S(=O)(c1ccc(OC(F)(F)F)cc1)N1CCCc2cc(-c3cccnc3)ccc21`, half-maximal inhibition in [2] (IC50) was put at 929 nM.
Turning to `O=S(=O)(c1cccc(OC(F)(F)F)c1)N1CCCc2cc(-c3cccnc3)ccc21`, the IC50 in series [1] stood at 322 nM; in [2] it was 382 nM.
The corresponding values for `COc1cccc(S(=O)(=O)N(C)c2ccc(-c3cccnc3)cc2)c1` are 239 nM and 68 nM.
As for `Cc1cccc(S(=O)(=O)N2CCCc3cc(-c4cccnc4)ccc32)c1`, the IC50 was 205 nM in series [1] and 26 nM in [2]. Further, the inhibition at 2 µM came out at 9% in series [5] and 29% in series [8]. In addition, the Ratio IC50 in series [6] and in [12] was more than 60 each time.
